Laboratory results: publication PMC9130233, “An inhibitor of RORγ for chronic pulmonary obstructive disease treatment” (Scientific Reports, 2022)
Where two headings read alike, the source gives them in different places.

Experiments:
[1] = Toxicokinetics (blood), 14-day inhalation study in Sprague Dawley rats; assay type: in vivo, rat; conditions: for half-life / AUC(0-t) / Cmax / Tmax: inhaled or intranasal; for half-life / AUC(0-t) / Cmax: inhalation; for AUC(0-t): read-out: AUC0-tlast, mean (SE); for Cmax: read-out: Cmax, mean (SE)
Procedure: Rats were exposed to PCCR-1 aerosols at 3.4, 10.8 and 32.1 mg/kg/day (delivered dose) for 60 min daily for 14 days using a snout only exposure technique via a modular stainless steel flow past inhalation chamber at indicated doses as mentioned in Table 3. No treatment-related findings noted, including myeloid:erythroid (M:E) ratios in any dose levels except minimal changes in the reticulocytes and adrenal glands.
The TK assessment was done by measuring the concentrations of PCCR-1 in blood.
The toxicology study was done in SD (Sprague Dawley) rats that were exposed to PCCR-1 aerosol for 60 min daily at 3.4, 10.8 and 32.1 mg/kg/day (delivered dose) for 14 days using a snout only exposure technique via a modular stainless steel flow past inhalation chamber. A 60% w/w blend of PCCR-1 in Lactose LH201 was prepared by adding the appropriate amount of PCCR-1 to the appropriate amount of lactose. The estimated delivered doses were derived based on analytical aerosol concentration, and respiratory minute volume calculated based on body weight, exposure duration, and animal body weight (Supplementary section B).

[2] = Drug concentrations on day-8 in CS-model mice after 7-day intranasal treatment; assay type: in vivo; conditions: C57BL/6, mouse, other: intranasal; for concentration at 1 h: CS exposed mice
Procedure: Additionally, after 7-day intranasal treatment with PCCR-1 in the CS-model in mice as described above, blood, BAL fluid and lung tissues were collected on day-8 approximately 1 h after the last treatment dose for estimating the drug concentrations for PK-PD correlation.

[3] = biological target: hERG (Homo sapiens, UniProt Q12809); experiment: hERG; conditions: rated moderate
Sequence of hERG (Q12809 whole entry): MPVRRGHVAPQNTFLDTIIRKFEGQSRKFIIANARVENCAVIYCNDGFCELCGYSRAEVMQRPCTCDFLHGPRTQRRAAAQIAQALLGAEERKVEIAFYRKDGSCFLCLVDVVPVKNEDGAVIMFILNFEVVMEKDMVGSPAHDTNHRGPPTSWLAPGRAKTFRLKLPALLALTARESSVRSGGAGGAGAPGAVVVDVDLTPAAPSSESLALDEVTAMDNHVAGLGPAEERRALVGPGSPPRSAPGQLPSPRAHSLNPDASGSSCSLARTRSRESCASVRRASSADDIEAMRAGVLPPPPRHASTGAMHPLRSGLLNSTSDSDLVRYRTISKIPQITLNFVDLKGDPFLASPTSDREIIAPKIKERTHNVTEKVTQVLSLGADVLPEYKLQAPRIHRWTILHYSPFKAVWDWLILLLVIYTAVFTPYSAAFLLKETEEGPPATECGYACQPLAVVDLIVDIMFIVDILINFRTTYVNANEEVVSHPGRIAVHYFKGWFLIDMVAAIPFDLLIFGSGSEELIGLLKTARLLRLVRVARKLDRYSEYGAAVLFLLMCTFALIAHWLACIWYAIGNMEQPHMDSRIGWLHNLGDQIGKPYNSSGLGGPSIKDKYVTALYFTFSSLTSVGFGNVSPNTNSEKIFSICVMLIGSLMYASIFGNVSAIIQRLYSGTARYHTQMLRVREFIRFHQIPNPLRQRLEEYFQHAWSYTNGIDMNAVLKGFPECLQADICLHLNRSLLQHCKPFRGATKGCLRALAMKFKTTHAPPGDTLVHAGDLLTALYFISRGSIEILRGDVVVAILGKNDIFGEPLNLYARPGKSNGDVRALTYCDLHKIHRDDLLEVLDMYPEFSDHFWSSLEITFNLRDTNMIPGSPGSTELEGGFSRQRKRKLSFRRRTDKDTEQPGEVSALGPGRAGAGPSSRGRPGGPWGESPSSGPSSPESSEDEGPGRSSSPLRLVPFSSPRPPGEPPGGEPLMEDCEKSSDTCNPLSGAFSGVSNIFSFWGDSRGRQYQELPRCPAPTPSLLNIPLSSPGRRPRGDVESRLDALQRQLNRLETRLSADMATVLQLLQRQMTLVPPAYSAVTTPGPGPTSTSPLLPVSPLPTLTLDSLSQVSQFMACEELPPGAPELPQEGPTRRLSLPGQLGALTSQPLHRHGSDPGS

[4] = male, Sprague Dawley, rat, blood, 10.8 mg/kg/day, SD rat blood, 10.8 mg/kg/day, Day 1, Male
[5] = male, Sprague-Dawley, rat, blood, 3.4 mg/kg/day, SD rat blood, 3.4 mg/kg/day, Day 1, Male
[6] = male, Sprague-Dawley, rat, blood, 3.4 mg/kg/day, SD rat blood, 3.4 mg/kg/day, Day 14, Male
[7] = male, Sprague-Dawley, rat, in vivo, 32.1 mg/kg/day, SD rat blood, 32.1 mg/kg/day, Day 1, Male
[8] = male, Sprague-Dawley, rat, in vivo, 32.1 mg/kg/day, SD rat blood, 32.1 mg/kg/day, Day 14, Male
[9] = male, Sprague-Dawley, rat, whole blood, 10.8 mg/kg/day, SD rat blood, 10.8 mg/kg/day, Day 14, Male
[10] = rat blood, mid and high dose levels

CCn1c(C(C)(C)Oc2ccc(F)cc2F)nc2cc(NC(=O)Cc3ccc(S(=O)(=O)CC)cc3)ccc21 [PCCR-1]
tlast ([1]; from start of inhalation dosing, SD rat blood, 3.4 mg/kg/day, Day 1, Mean): 9.0 h | tlast ([1]; from start of inhalation dosing, SD rat blood, 32.1 mg/kg/day, Day 1, Female): 25.0 h | tlast ([1]; from start of inhalation dosing, SD rat blood, 32.1 mg/kg/day, Day 1, Male): 25.0 h | tlast ([1]; from start of inhalation dosing, SD rat blood, 32.1 mg/kg/day, Day 1, Mean): 25.0 h | tlast ([1]; from start of inhalation dosing, SD rat blood, 32.1 mg/kg/day, Day 14, Female): 25.0 h | tlast ([1]; from start of inhalation dosing, SD rat blood, 32.1 mg/kg/day, Day 14, Male): 25.0 h | tlast ([1]; from start of inhalation dosing, SD rat blood, 32.1 mg/kg/day, Day 14, Mean): 25.0 h | half-life [1, 4]: 6 h | AUC(0-t) [1, 4]: 2.91 µg·h/mL | Cmax [1, 4]: 0.37 µg/mL | Tmax ([1]; male, Sprague Dawley, rat, blood, 10.8 mg/kg/day, from start of inhalation dosing, SD rat blood, 10.8 mg/kg/day, Day 1, Male): 3 h | tlast ([1]; male, Sprague Dawley, rat, in vivo, 10.8 mg/kg/day): 25.0 h | AUC(0-t) [1, 5]: 0.963 µg·h/mL | Cmax [1, 5]: 0.177 µg/mL | half-life [1, 6]: 6.4 h | AUC(0-t) [1, 6]: 2.5 µg·h/mL | Cmax [1, 6]: 0.19 µg/mL | Tmax ([1]; male, Sprague-Dawley, rat, blood, 3.4 mg/kg/day, from start of inhalation dosing, SD rat blood, 3.4 mg/kg/day, Day 1, Male): 3 h | Tmax ([1]; male, Sprague-Dawley, rat, blood, 3.4 mg/kg/day, from start of inhalation dosing, SD rat blood, 3.4 mg/kg/day, Day 14, Male): 3 h | tlast ([1]; male, Sprague-Dawley, rat, in vivo, 3.4 mg/kg/day): 25.0 h | tlast ([1]; male, Sprague-Dawley, rat, in vivo, 10.8 mg/kg/day): 25.0 h | AUC(0-t) [1, 7]: 5.41 µg·h/mL | Cmax [1, 7]: 0.533 µg/mL | AUC(0-t) [1, 8]: 8.23 µg·h/mL | Cmax [1, 8]: 0.885 µg/mL | AUC(0-t) [1, 9]: 5.44 µg·h/mL | Cmax [1, 9]: 0.359 µg/mL | Tmax ([1]; male, Sprague-Dawley, rat, whole blood, 10.8 mg/kg/day, from start of inhalation dosing, SD rat blood, 10.8 mg/kg/day, Day 14, Male): 5 h | AUC in blood accumulation relative to day-1 ([1]; once-daily inhalation for 14 days, except female rats at 10.8 mg/kg/day): 1.5–2.6 fold | AUC in females higher than males [1, 10]: 1.5–2.5 fold | Cmax in females higher than males [1, 10]: 1.3–1.9 fold | concentration at 1 h ([2]; BAL fluid, day-8, intranasal 1 µg/animal, read-out: Total concentration BAL fluid): 0.0257 µM | concentration at 1 h ([2]; BAL fluid, day-8, intranasal 10 µg/animal, read-out: Total concentration BAL fluid): 0.16 µM | concentration at 1 h ([2]; BAL fluid, day-8, intranasal 30 µg/animal, read-out: Total concentration BAL fluid): 0.39 µM | concentration at 1 h ([2]; BAL fluid, day-8, intranasal 50 µg/animal, read-out: Total concentration BAL fluid): 0.779 µM | concentration at 1 h ([2]; BAL fluid, day-8, intranasal 100 µg/animal, read-out: Total concentration BAL fluid): 1.32 µM | concentration at 1 h ([2]; lung, day-8, intranasal 1 µg/animal, read-out: Total concentration Lung): 5.48 µM | concentration at 1 h ([2]; lung, day-8, intranasal 10 µg/animal, read-out: Total concentration Lung): 53.6 µM | concentration at 1 h ([2]; lung, day-8, intranasal 30 µg/animal, read-out: Total concentration Lung): 171 µM | concentration at 1 h ([2]; lung, day-8, intranasal 50 µg/animal, read-out: Total concentration Lung): 379 µM | concentration at 1 h ([2]; lung, day-8, intranasal 100 µg/animal, read-out: Total concentration Lung): 608 µM | Kp at 1 h ([2]; lung/plasma, CS-model mice, 7-day intranasal treatment, all tested doses (1 to 100 µg), read-out: concentration in lung as compared to the plasma): > 1000 | concentration at 1 h ([2]; plasma, day-8, intranasal 1 µg/animal, read-out: Total concentration Plasma): < 0.00185 µM | concentration at 1 h ([2]; plasma, day-8, intranasal 10 µg/animal, read-out: Total concentration Plasma): < 0.00185 µM | concentration at 1 h ([2]; plasma, day-8, intranasal 30 µg/animal, read-out: Total concentration Plasma): 0.0206 µM | concentration at 1 h ([2]; plasma, day-8, intranasal 50 µg/animal, read-out: Total concentration Plasma): 0.0332 µM | concentration at 1 h ([2]; plasma, day-8, intranasal 100 µg/animal, read-out: Total concentration Plasma): 0.0847 µM | IC50 [3]: 6 µM
